Experimental data taken from ChEMBL document CHEMBL5724696, “Autophagy assay results for EUbOPEN Chemogenomics Library” (2024).

Experiments:
Format in all cases: functional, Homo sapiens
U2OS [1] = assay: (§1) Here: values are normalized to the negative (DMSO; defined as 0% autophagy induction) and positive (250nM Torin1; mTOR inhibitor; defined as maximal inducer of autophagy = 100%) control compounds and represented as % of autophagy induction. […] The impact of autophagy induction on cells is complex and depends on the affected target. As such, the magnitude of a phenotype may not be equally mirrored in the %-value of autophagy induction and vice versa. The dynamics of the induction may indicate the mode of activation: e.g. activation via phosphorylation or a signaling cascade may occur fast, while activation via transcription factors may take considerably longer. […] Of note, treatment concentrations may be sub-optimal for specific compounds, leading to false negative annotations.; settings: Culturing Media DMEM, 1 % Penicillin/Streptomycin, 10% Fetal bovin serum Add-On: No, Screening Media Control DMEM, Screening Media Samples DMEM
TERT-RPE1 = assay: as §1; settings: Culturing Media DMEM/F12 (1:1), 1 % Penicillin/Streptomycin, 10% Fetal bovin serum Add-On: No, Screening Media Control DMEM/F12 (1:1), Screening Media Samples DMEM/F12 (1:1)
U2OS [2] = assay: as §1; settings: Culturing Media DMEM, 1 % Penicillin/Streptomycin, 10% Fetal bovin serum Add-On: No, Screening Media Control DMEM, Screening Media Samples DMEM; remark: listed apart in the source
[3] = Compound Concentration 0.5 uM, Timepoint 12 hours
[4] = Compound Concentration 0.5 uM, Timepoint 24 hours
[5] = Compound Concentration 0.5 uM, Timepoint 36 hours
[6] = Compound Concentration 0.5 uM, Timepoint 60 hours
[7] = Compound Concentration 2 uM, Timepoint 12 hours
[8] = Compound Concentration 2 uM, Timepoint 24 hours
[9] = Compound Concentration 2 uM, Timepoint 36 hours
[10] = Compound Concentration 2 uM, Timepoint 60 hours
[11] = Compound Concentration 10 uM, Timepoint 12 hours
[12] = Compound Concentration 10 uM, Timepoint 24 hours
[13] = Compound Concentration 10 uM, Timepoint 36 hours
[14] = Compound Concentration 10 uM, Timepoint 60 hours

C[C@H](Cc1cc2c(c(C(N)=O)c1)N(CCCO)CC2)NCCOc1ccccc1OCC(F)(F)F [SILODOSIN]
autophagy induction (U2OS [1]; [3]): -11.9601%
autophagy induction (U2OS [1]; [4]): -4.037%
autophagy induction (U2OS [1]; [5]): -2.198%
autophagy induction (U2OS [1]; [6]): -1.72%
autophagy induction (U2OS [1]; [7]): -7.096%
autophagy induction (U2OS [1]; [8]): -4.088%
autophagy induction (U2OS [1]; [9]): -2.301%
autophagy induction (U2OS [1]; [10]): -1.816%
autophagy induction (U2OS [1]; [11]): 0.9061%
autophagy induction (U2OS [1]; [12]): 0.8821%
autophagy induction (U2OS [1]; [13]): -0.4631%
autophagy induction (U2OS [1]; [14]): -2.909%
autophagy induction (TERT-RPE1; [3]): -3.093%
autophagy induction (TERT-RPE1; [4]): -6.268%
autophagy induction (TERT-RPE1; [5]): -8.97%
autophagy induction (TERT-RPE1; [6]): -13.239%
autophagy induction (TERT-RPE1; [7]): -3.63%
autophagy induction (TERT-RPE1; [8]): -5.97%
autophagy induction (TERT-RPE1; [9]): -7.85%
autophagy induction (TERT-RPE1; [10]): -11.8179%
autophagy induction (TERT-RPE1; [11]): -0.1283%
autophagy induction (TERT-RPE1; [12]): -0.9694%
autophagy induction (TERT-RPE1; [13]): 1.604%
autophagy induction (TERT-RPE1; [14]): -1.313%
autophagy induction (U2OS [2]; [3]): 8.749%
autophagy induction (U2OS [2]; [4]): -4.272%
autophagy induction (U2OS [2]; [5]): -5.327%
autophagy induction (U2OS [2]; [6]): -13.2389%
autophagy induction (U2OS [2]; [7]): -4.216%
autophagy induction (U2OS [2]; [8]): 0.5128%
autophagy induction (U2OS [2]; [9]): -1.271%
autophagy induction (U2OS [2]; [10]): -7.276%
autophagy induction (U2OS [2]; [11]): 1.6%
autophagy induction (U2OS [2]; [12]): 6.633%
autophagy induction (U2OS [2]; [13]): 3.208%
autophagy induction (U2OS [2]; [14]): 0.1621%
